Each block holds one compound with its values, some of them ahead of it. Residues, ends and D or L forms follow the SMILES beside them. *: point of attachment. Fmoc = O=C(OCC1c2ccccc2-c2ccccc21)*; Boc = CC(C)(C)OC(=O)*
Key:
[1] = Incorporation of low molecular weight drugs into Fmoc-Leu-Asp gels; format: physicochemical; settings: Fmoc-Leu-Asp gel 10 mg/ml=21 mM
Description: (§1) The low molecular weight drugs 3,5-dimethyl-1-adamantanamine hydrochloride (Ada2Me) and 5-methyl-1-adamantanamine 3-carboxylic acid (AdaMeC) can also be incorporated into the Fmoc-Leu-Asp gels (10 mg/ml=21 mM) at concentrations of […] and 33 mM, respectively. At higher total concentrations, (>5 mM Ada2Me or >33 mM AdaMeC) these agents inhibit gelation. […] Fmoc-Leu-Asp alone produced antibodies with titers no greater than 1:4.

rabbits = test: Immunization of rabbits, antibody titers (double diffusion in agarose gel, reverse radial diffusion, passive hemagglutination); format: in vivo, rabbit; settings: for production of specific antibodies, injected alone: rabbits, Ada2Me 5 mM, AdaMeC 33 mM
Description: as §1
Female random-bred rabbits were immunized three times, at weekly intervals and bled on the 24th day. A full dose was used for the first two immunizations, and a half of the full dose for the third immunization. Full doses of the BSA conjugates were 100 μg total protein. Before injections, AdaMeC-BSA and AdaMeC-Bal-BSA solutions were diluted with equal volumes of complete Freund's adjuvant, but AdaMeC+dipeptide gel was diluted with an equal volume of 0.01M phosphate buffer; pH 7.4. The volume of immunogen solutions injected each time was 1 ml. Immune sera were analyzed by two immunoprecipitation assays, the double diffusion in agarose gel and the reverse radial immunodiffusion, as described by Oudin, J. Meth. Enzymol., 70, 166-98 (1980). As shown in FIG. 8A double diffusion in agarose was used to determine the titer of antibodies recognizing AdaMeC-containing conjugates in sera of rabbits immunized with AdaMeC-coupled with or without a beta-alanine (Bal) spacer to BSA in complete Freunds adjuvant or with AdaMeC mixed with Fmoc-Leu-Asp without adjuvant. The antisera were tested against each of the three immunogens and compared to sera of rabbits injected with either AdaMeC or Fmoc-Leu-Asp-alone. And as shown in FIG. 8B the passive hemagglutination test, as described in Adler, F. L. & Adler, L. T., Meth. Enzymol., 70, 455-66 (1980), was used to analyze antisera of rabbits immunized with each of the three AdaMeC conjugates after challenge with the three AdaMeC conjugates, AdaMeC alone or Ada2Me. In the first two assays, the solid phase was 1% agarose containing 0.8% sodium chloride. The sample volumes were 25 μl. The probes were incubated for 72 h at 37° C. […]

[2] = methanol and cyclohexane; cited from earlier work
[3] = Aqueous gel formation of Fmoc-protected peptides; format: physicochemical; settings: for Gel formed / Gel formed (minimum conc., %): aqueous gels
Description: Aqueous gels of the synthesized compounds can be made by several methods which are outlined here and more fully described in the examples.
1. Finely ground dipeptide or tripeptide compound is suspended in boiling water, the mixture is briefly and vigorously mixed or shaken and left to cool. Between 50-60° C. gelation occurrs. This procedure can be repeated to obtain a more homogeneous mixture and a stronger gel.
2. The dipeptide or tripeptide compound is dissolved in a minimal volume of organic solvent which is miscible in water, and at room temperature a small volume of the solution is added to a large volume of water with rapid mixing, after which the gel forms.
3. Methods 1 and 2 can be combined.
(§2) Boil 10 ml water and suspend in it 0.8% finely ground compound 5 of Table 2. Strongly shake or stir the suspension then let stand 10-15 minutes. On cooling the solution becomes turbid at 50-60° C. and at room temperature a gel forms. The gel can be reheated, agitated and recooled. When repeated several times, a stronger gel forms.

[4] = Shear modulus by free oscillations using a torsion pendulum; format: physicochemical
Description: From this curve is calculated the shear modulus G^1.
The shear modulus was measured by free oscillations using a torsion pendulum. The theory and description of the method are described in Plazek D., Vrancke., Berge J., Trans. Soc. Rheol. 2, 38-47 (1958); Ferry J. Viscoelastic Properties of Polymers, Wiley New York (1980), and Janmey P., et al., J. Rheol. 27, 135-153 (1993). Gels are formed by method 1 using Tris buffer pH7.4. The peptide concentration in FIG. 1 is 2.5 mg/ml (0.25%). […] This denotes the moderately high elastic strength of this gel.

[5] = Gel drying (evaporation of water); format: physicochemical
Description: Gels containing either 0.5-0.6% or 0.8% compound 5, gelatin, or starch are disolved in water at 90° C. and briefly cooled. The solutions (0.8 ml) are poured into shallow plastic dishes (17 mm inner diameter). On reaching room temperature, the dishes are weighed and left with desicants but without vacuum to dry. […] After 15 hours, the compound 5 gel has lost 57% of its water, but the gelatine and starch solutions have lost 70% and 87% of their water, respectively.

[6] = Solubility in water (Example 2); format: physicochemical
Description: as §2
Compound 5 is soluble below 0.8%. At concentrations below 0.4% little or no gel forms. When such a solution is evaporated to 50% volume and then heated and cooled, a gel forms.

[7] = Preparation of gels in ethylether; format: physicochemical; settings: diethylether gel, -5° C.
Description: Suspend 150-200 mg finely ground compound 5 of table 2 in 10 mL boiling diethylether. Shake suspension, filter and let sit 30-60 minutes at -5° C. On cooling a gel forms. The peptide concentration can be measured by weighing the gel, and evaporating the solvent in vacuum to a constant weight. In this way a solute concentration of 1-1.2% was found.

[8] = Low strain oscillatory rheology (Rheometrics RFSII); format: physicochemical
Description: (triangles.) and 20° C. (circles). Other experimental conditions are as described for FIG. 6B.
Other experimental conditions and symbols are as described for FIG. 6C.
Of particular interest in this invention are the gels formed with Fmoc-Leu-Asp. At concentrations between 1 mg/ml and 1.5 mg/ml solutions of Fmoc-Leu-Asp undergo an abrupt increase in light scattering at both 20° C. and 60° C., as shown in FIG. 6A wherein 1 ml solutions in 1 cm diameter cylindrical cells were measured with a Brookhaven Instruments BI30ATN apparatus using a 633 nm 10 mW laser. When a solution of 2 mg/ml dipeptide is cooled from 100° C. to 60° C., viscoelastic parameters characteristic of a gel are obtained by low strain oscillatory measurements. The storage shear storage modulus, G', a measure of the elastic strength of the material, reaches a stable level of 80 Pa within several minutes (FIG. 6B). These measurements were made using a Rheometrics RFSII instrument1. The maximal shear strain was 1% for oscillatory deformation at a frequency of 1 rad/s. […] NY Acad. Sci. 408, 1-10, (1983) or F-actin, as shown in Janmey P. A. et al., Biochemistry 27, 8218-8227 (1988). […] G', shear storage modulus, depends weakly on frequency from 0.1 to 100 rad/s, and is much larger than the shear loss modulus G" (FIG. 6C). […]

[9] = chloroform; cited from earlier work

SMILES: CC12CC3CC(C)(C1)CC(N)(C3)C2.Cl [Ada2Me, 3,5-dimethyl-1-adamantanamine hydrochloride]
- concentration incorporated into Fmoc-Leu-Asp gels [1]: 1000 µM
- total concentration that inhibits gelation [1]: > 5 mM
- production of specific antibodies, injected alone (rabbits): neither Ada2Me (5 mM) nor AdaMeC (33 mM) produced specific antibodies

SMILES: CC12CC3CC(N)(C1)CC(C(=O)O)(C3)C2.Cl (stereo not shown) [AdaMeC, 5-methyl-1-adamantanamine 3-carboxylic acid hydrochloride]
- concentration incorporated into Fmoc-Leu-Asp gels [1]: 33000 µM
- total concentration that inhibits gelation [1]: > 33 mM
- production of specific antibodies, injected alone (rabbits): neither Ada2Me (5 mM) nor AdaMeC (33 mM) produced specific antibodies

SMILES: CCCCCCCCCCCCCCCC(=O)c1ccc(OC(=O)[C@H](C)NC(=O)OCc2ccccc2)c([N+](=O)[O-])c1 [N-benzyl-oxycarbonyl L-alanine 4-hexadecanoyl-2nitrophenyl ester]
- concentration at which thermally reversible gels form [2]: below 1%

SMILES: NC12CC3CC(CC(C3)C1)C2 [adamantamine]
- antibody production in rabbits (rabbits; trapped in Fmoc-Leu-Asp gels without additional adjuvant, versus covalently linked to BSA and injected with adjuvant): at least as efficiently

- Gel formed [3]: Yes
- Gel formed (minimum conc., %) [3]: 0.4%
SMILES: CC[C@H](C)[C@H](NC(=O)OCC1c2ccccc2-c2ccccc21)C(=O)N[C@@H](CC(=O)O)C(=O)O [compound 2, Fmoc--ile--Asp] (Fmoc-Ile-Asp-OH)

- gel formation with boric acid ([3]; 0.8% in 3.5% boric acid in boiling water, on cooling): a gel forms
- temperature at which the solution becomes turbid on cooling ([3]; 0.8% in boiled water): 50-60 °C
- Gel formed [3]: Yes
- Gel formed (minimum conc., %) [3]: 0.5%
- gel formation in glycerol solution ([3]; solutions of 70% glycerol): forms gels
- concentration at which little or no gel forms ([3]; water): below 0.4%
- shear modulus ([4]; 2.5 mg/ml (0.25%), Tris buffer pH7.4, gel formed by method 1): 3.1 Pa
- saturation concentration ([4]; Tris buffer pH7.4): ~5 mg/mL
- gel formation on cooling ([5]; 0.5-0.6% or 0.8% in water dissolved at 90° C.): forms a gel on cooling
- water lost ([5]; after 15 hours, with desicants, without vacuum, room temperature): 57%
- concentration at which soluble in water [6]: below 0.8%
- solute concentration in the gel [7]: 1-1.2%
- storage shear modulus G' ([8]; 2 mg/ml, cooled from 100° C. to 60° C., 1% maximal shear strain, 1 rad/s, stable level within several minutes): 80 Pa
- fall of both shear moduli (G', G") on strain, factor ([8]; samples strained to 10%): 100
SMILES: CC(C)C[C@H](NC(=O)OCC1c2ccccc2-c2ccccc21)C(=O)N[C@@H](CC(=O)O)C(=O)O [compound 5, Fmoc--Leu--Asp] (Fmoc-Leu-Asp-OH)

SMILES: CC[C@H](C)[C@H](NC(=O)[C@@H](NC(=O)[C@@H](NC(=O)OC(C)(C)C)C(C)C)C(C)C)C(=O)OC [t-butoxycarbonyl-valyl-valylisoleucine methylester] (Boc-Val-Val-Ile-OMe)
- critical micelle concentration [9]: 2.5 mM
